Assay results reported in paper PMC11075021, “Asymmetric Synthesis of Chiral 2-Cyclohexenones with Quaternary Stereocenters via Ene-Reductase Catalyzed Desymmetrization of 2,5-Cyclohexadienones” (ACS Catalysis, 2024).

Molecular target: T1, YqjM (Bacillus subtilis, UniProt P54550)
T1 construct: gene namA; wild type, purified recombinant enzyme; dimer, both protomers line the active site
T1 sequence (P54550 2-338): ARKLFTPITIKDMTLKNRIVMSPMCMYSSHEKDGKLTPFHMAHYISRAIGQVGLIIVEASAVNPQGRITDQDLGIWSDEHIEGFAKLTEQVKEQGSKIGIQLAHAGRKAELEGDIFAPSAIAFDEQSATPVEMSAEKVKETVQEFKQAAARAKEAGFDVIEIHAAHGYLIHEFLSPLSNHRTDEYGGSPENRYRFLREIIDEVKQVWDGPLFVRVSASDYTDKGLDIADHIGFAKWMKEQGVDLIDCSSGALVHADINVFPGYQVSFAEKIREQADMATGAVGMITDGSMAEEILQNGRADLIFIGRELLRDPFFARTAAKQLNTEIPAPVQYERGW
Assay: stopped-flow oxidation of prereduced enzyme
Assay type: biochemical
Settings: anoxic; no kinetic saturation in the accessible range

## C[C@@]1(c2ccccc2)C=CC(=O)CC1 [2a, cyclohexenone 2a]
  kobs at 800 μM: Both compounds oxidized prereduced YqjM relatively slowly
